Source: the NIST ThermoML archive (doi:10.1016/j.jct.2015.09.002)

Assay: xn = mol fraction of the nth substance listed
Conditions: 93.2 kPa, Liquid, Vibrating tube method

CCCN [propan-1-amine] + CC#N
mass density [kg/m3]
Conditions	293.15 K	298.15 K	303.15 K	308.15 K
x2 = 0	716.48	711.21	705.88	700.62
x2 = 0.0105	717.02	711.79	706.42	701.16
x2 = 0.0199	717.49	712.26	706.89	701.63
x2 = 0.0296	717.97	712.74	707.37	702.11
x2 = 0.0409	718.55	713.3	708.3	702.66
x2 = 0.0512	719.01	713.79	708.42	703.16
x2 = 0.061	719.48	714.26	708.9	703.65
x2 = 0.0707	719.96	714.7	709.38	704.14
x2 = 0.0809	720.48	715.23	710.24	704.64
x2 = 0.0895	720.87	715.66	710.31	705.06
x2 = 0.0993	721.35	716.14	710.79	705.55
x2 = 0.1493	723.85	718.65	713.34	708.1
x2 = 0.2006	726.46	721.27	715.97	710.75
x2 = 0.2499	729.08	723.91	718.64	713.3
x2 = 0.2998	731.77	726.59	721.31	715.96
x2 = 0.3507	734.55	729.34	724.05	718.82
x2 = 0.3993	737.38	732.18	726.9	721.58
x2 = 0.4479	740.27	735.05	729.77	724.44
x2 = 0.4988	743.34	738.1	732.79	727.56
x2 = 0.5486	746.55	741.33	736.02	730.68
x2 = 0.6017	750.02	744.77	739.46	734.16
x2 = 0.6499	753.32	748.08	742.76	737.45
x2 = 0.6998	756.86	751.61	746.49	740.98
x2 = 0.7501	760.68	755.4	750.19	744.7
x2 = 0.8001	764.57	759.28	754.03	748.54
x2 = 0.8487	768.54	763.25	757.85	752.47
x2 = 0.8995	772.9	767.55	762.15	756.72
x2 = 0.9089	773.68	768.32	762.93	757.54
x2 = 0.9201	774.65	769.28	763.89	758.5
x2 = 0.928	775.36	770	764.6	759.19
x2 = 0.9393	776.43	771.07	765.67	760.24
x2 = 0.9491	777.27	771.89	766.51	761.05
x2 = 0.9594	778.22	772.82	767.45	761.98
x2 = 0.9678	778.99	773.6	768.21	762.74
x2 = 0.9795	780.09	774.69	769.3	763.82
x2 = 0.9893	781.01	775.61	770.21	764.73

CCN(CC)CC [triethylamine] + CC#N
mass density [kg/m3]
Conditions	293.15 K	298.15 K	303.15 K	308.15 K
x2 = 0	727.7	723.02	718.36	713.65
x2 = 0.0113	728.13	723.44	718.77	714.06
x2 = 0.0212	728.41	723.73	719.05	714.32
x2 = 0.03	728.67	723.97	719.29	714.57
x2 = 0.0406	728.98	724.28	719.6	714.86
x2 = 0.0502	729.23	724.53	719.84	715.1
x2 = 0.0591	729.48	724.77	720.06	715.32
x2 = 0.0701	729.78	725.07	720.35	715.6
x2 = 0.0842	730.18	725.45	720.73	715.97
x2 = 0.0944	730.47	725.73	721.02	716.24
x2 = 0.1013	730.66	725.97	721.24	716.48
x2 = 0.1519	732.16	727.46	722.63	717.85
x2 = 0.1991	733.6	728.85	723.99	719.16
x2 = 0.2501	735.21	730.39	725.53	720.64
x2 = 0.3018	736.94	732.07	727.17	722.25
x2 = 0.3505	738.65	733.76	728.84	723.88
x2 = 0.4003	740.52	735.58	730.62	725.63
x2 = 0.4482	742.43	737.48	732.49	727.48
x2 = 0.5002	744.69	739.7	734.68	729.63
x2 = 0.5511	747.1	742.08	737.03	731.95
x2 = 0.5995	749.58	744.55	739.43	734.36
x2 = 0.6499	752.4	747.32	742.18	737.06
x2 = 0.702	755.6	750.5	745.3	740.16
x2 = 0.7498	758.83	753.71	748.42	743.28
x2 = 0.7998	762.53	757.35	752.07	746.81
x2 = 0.85	766.68	761.45	756.13	750.82
x2 = 0.8994	771.19	765.92	760.59	755.2
x2 = 0.9095	772.21	766.93	761.6	756.23
x2 = 0.9199	773.25	767.97	762.63	757.25
x2 = 0.9293	774.23	768.93	763.58	758.19
x2 = 0.9402	775.35	770.05	764.69	759.29
x2 = 0.9495	776.36	771.03	765.7	760.33
x2 = 0.9591	777.43	772.08	766.69	761.27
x2 = 0.9685	778.48	773.13	767.72	762.31
x2 = 0.99	780.9	775.52	770.1	764.64
